The test system of one data set is NF-κB. Nature of the data set: NF-κB inflammation assay (PRINCESS NINA Instant Assay, A549-NF-κB-SEAP reporter cells). The note with it: for EC50: A549-NF-κB-SEAP reporter cells stimulated with 2 ng/ml TNF-α, read-out: Biological activity (EC50, NF-κB inflammation assay). It counts as cell-based.
For the next data set, the system named is influenza strain H5N1. Format: in vivo, mouse.
For another data set, the system named is hematological cell lines. Nature of the data set: In-vitro antitumor activity in human tumor cell lines (monolayer assay, propidium iodide). Format: cell-based.
Another data set relates to influenza virus. Nature of the data set: Antiviral combination with interferon-α.
The subject of data set [1] is Influenza A virus H5N1-strain. Format: cell-based. To be noted: 5 μM, infected A549 cells.
Data set [2] has as its system bird flu virus H5N1 (strain MB1). It counts as in vivo, mouse. To be noted: H5N1 infected mice, daily 15 mg/kg i.p. for two days.
Another data set has as its system human PBMCs. The data set can be described thus: Cytokine production of human PBMCs. Format: cell-based. The note with it: for EC50: Homo sapiens, PBMC, 48 h, 48 hours.
Data set [3] concerns Fowl Plaque Virus, H7N7-strain. It counts as cell-based, Influenza A virus. To be noted: 5 μM, infected A549 cells.
Another data set relates to mouse T-cell. The data set can be described thus: Mouse T-cell proliferation. Format: cell-based.
The subject of the next data set is mouse splenocytes. The data set can be described thus: Cytokine production of mouse splenocytes stimulated with CD3/CD28. It counts as cell-based. The note with it: 10 μM.
The test system of the next data set is influenza strain H7N7. It counts as in vivo, mouse.
In the next data set the test system is A549 cells. Nature of the data set: Determination of cell viability (MTT staining). It counts as cell-based. How it is done: Cell lines (e.g. A549) incubated with compounds of the invention were assessed on cell viability by means of MTT staining.
The test system of the next data set is human lymphocyte. The data set can be described thus: T-lymphocyte proliferation assay (stimulated PBMC, BrdU). It counts as cell-based.

Broadly, the EC50 is the concentration that produces a half-maximal response. For orientation: IC50 means the concentration needed to halve the response being measured.

SMILES strings stand for the structures. Where two headings read alike, the source gives them in different places. Where only a bound is given, the exact number is not on record here.

For `Cc1cc2nnc(C(=O)N3CCC(c4nc(C(=O)Nc5nc6cc(C(=O)c7ccccc7)ccc6[nH]5)cs4)CC3)c(C)n2n1` [Compound 17, N-(5-benzoyl-1H-benzo[d]imidazol-2-yl)-2-(1-(4,7-dimethylpyrazolo[5,1-c][1,2,4]triazine-3-carbonyl)piperidin-4-yl)thiazole-4-carboxamide], the EC50 in the data set with NF-κB is below 10 µM.

Consider `O=C(c1ccccc1)c1ccc2nc(NC(=O)c3csc(C4CCN(c5ncnc6ccsc56)CC4)n3)[nH]c2c1` [Compound 4, N-(6-benzoyl-1H-benzo[d]imidazol-2-yl)-2-(1-(thieno[3,2-d]pyrimidin-4-yl)piperidin-4-yl)thiazole-4-carboxamide], for which the “protection of infected mice (survival)” value with influenza strain H5N1 (LD50 H5N1, treatment from day 4 to day 10, 7.5 mg/kg b.id. and 15 mg/kg daily i.p., end day 14, p=0.05) was “significant protection”; with influenza strain H5N1 (LD50 H5N1, two times 7.5 mg/kg daily i.p. day 0 to day 10, end day 14, p<0.05) it was “significant protection”; with influenza strain H7N7 (LD50 H7N7, 15 mg/kg daily i.p. day 0 to day 8, end day 14, p<0.05), “complete protection”; in the data set with influenza strain H7N7 (LD50 H7N7, daily i.v. day 0 to day 4, doses equal or higher 5 mg/kg, end day 14, p<0.05), “significant protection”. Moreover, the “multiple myeloma derived cell lines above average sensitive” value in the data set with hematological cell lines (cell lines derived from multiple myelomas) was 4 out of 5. For the same compound, the “score of tumor sensitivity” value with hematological cell lines (panel of hematological cell lines) was “excellent score of tumor sensitivity”. Besides, the EC50 was below 10 µM with NF-κB; 0.6 µM in the data set on human PBMCs (LPS stimulation, read-out: IL-6 secretion EC50); 12.6 µM in the data set with human PBMCs (LPS stimulation, read-out: TNF-alpha secretion EC50); 0.2 µM in the data set on human PBMCs (PHA stimulation, read-out: IL-6 secretion EC50); 9 µM with human PBMCs (PHA stimulation, read-out: INF-gamma secretion EC50); 7.9 µM in the data set with human PBMCs (PHA stimulation, read-out: TNF-alpha secretion EC50). The IC50 in the data set on NF-κB (read-out: NF-κB reporter gene assay IC50) was around 0.1 µM. Also, the “synergism in anti-viral efficacy and toxicity antagonism of combination with INFα versus IFNα combination with ribavirin” value in the data set on influenza virus (combination with INFα) is “stronger synergism”. The “antiviral effects in combination with INF-α” value with influenza virus (combination with interferon-α) is recorded as “synergistic antiviral effects”. In addition, the “reduction of virus titer” value was determined as 4 log units in data set [1] and 5 log units in data set [3]. Besides, the “expression of H5N1 specific mRNA in the lung” value in data set [2] is “reduced expression”. Moreover, in data set [2], the “transcription of IL-6 and IP-10 genes in the lung” value is given as “reduced transcription”. In the data set on human PBMCs (stimulated with CL075), the “secretion of cytokines like IL-1beta, IL-6, IL-8, IFN-gamma, and TNF-alpha” value was “blocked”. Besides, the “secretion of cytokines like IL-6 and IL-8” value in the data set with human PBMCs (stimulated with IL-1beta) and in the data set on human PBMCs (stimulated with ODN1668) was “blocked” each time. In addition, the “secretion of cytokines like IL-8, IL-1beta, INF-gamma, TNF-alpha, IL-10, and IL-6” value with human PBMCs (stimulated with LPS) is “blocked”. In the data set with human PBMCs (stimulated with ODN2216), the “secretion of cytokines like IL-8 and IFN-gamma” value was “blocked”. For the same compound, in the data set on human PBMCs (stimulated with PHA), the “secretion of cytokines like IL-1beta, IL-6, IL-2, IL-8, IL-10, IL-12p70, INF-gamma, and TNF-alpha” value is “blocked”. Besides, in the data set on human PBMCs (stimulated with TNF-alpha), the “secretion of cytokines like IL-1beta, IL-6, and IL-8” value is “blocked”. The “mouse T-cell proliferation” value in the data set with mouse T-cell was “inhibits”. Moreover, the “cytokine production, all measured cytokines” value in the data set on mouse splenocytes (after 24 hours) is “completely inhibited”. The “reduction of secretion of most cytokines” value in the data set with mouse splenocytes (after 48 hours) is reported as “more than 90 % of the DMSO control”. Also, the cytotoxicity result in the data set on A549 cells was “not cytotoxic”. For the same compound, in the data set on A549 cells (5 μM, absence of virus, MTT staining, 96 hours), the “cell viability versus DMSO treated and untreated cells” value is “the same”. Besides, the human lymphocyte proliferation entry in the data set on human lymphocyte is “inhibits”.

In the case of `O=C(c1ccccc1)c1ccc2nc(NC(=O)c3csc(C4CCN(c5ncnc6nc[nH]c56)CC4)n3)[nH]c2c1` [Compound 2, 2-(1-(7H-purin-6-yl)piperidin-4-yl)-N-(6-benzoyl-1H-benzo[d]imidazol-2-yl)thiazole-4-carboxamide], in the data set with NF-κB, the EC50 was below 10 µM.

On to `COc1cc2c(N3CCC(c4nc(C(=O)Nc5nc6cc(C(=O)c7ccccc7)ccc6[nH]5)cs4)CC3)ncnc2cc1OCCCN1CCN(C)CC1` [Compound 6, N-(5-benzoyl-1H-benzo[d]imidazol-2-yl)-2-(1-(6-methoxy-7-(3-(4-methylpiperazin-1-yl)propoxy)quinazolin-4-yl)piperidin-4-yl)thiazole-4-carboxamide], for which the EC50 in the data set with NF-κB was below 10 µM.

With `COc1nc(OC)nc(N2CCC(c3nc(C(=O)Nc4nc5cc(C(=O)c6ccccc6)ccc5[nH]4)cs3)CC2)n1` [Compound 13, N-(5-benzoyl-1H-benzo[d]imidazol-2-yl)-2-(1-(4,6-dimethoxy-1,3,5-triazin-2-yl)piperidin-4-yl)thiazole-4-carboxamide], in the data set with NF-κB, the EC50 is below 10 µM.

`N#Cc1ccnc(N2CCC(c3nc(C(=O)Nc4nc5ccc(C(=O)c6ccccc6)cc5[nH]4)cs3)CC2)c1` [Compound 3, N-(6-benzoyl-1H-benzo[d]imidazol-2-yl)-2-(1-(4-cyanopyridin-2-yl)piperidin-4-yl)thiazole-4-carboxamide]: the EC50 with NF-κB is 30 to 100 µM.

In the case of `O=CN1CCC(c2nc(C(=O)Nc3nc4cc(C(=O)c5ccccc5)ccc4[nH]3)cs2)CC1` [Compound 7, N-(5-benzoyl-1H-benzo[d]imidazol-2-yl)-2-(1-formylpiperidin-4-yl)thiazole-4-carboxamide], the EC50 in the data set with NF-κB was below 10 µM.

Turning to `O=C(c1ccccc1)c1ccc2[nH]c(NC(=O)c3csc(C4CCN(c5ccncc5[N+](=O)[O-])CC4)n3)nc2c1` [Compound 15, N-(5-benzoyl-1H-benzo[d]imidazol-2-yl)-2-(1-(3-nitropyridin-4-yl)piperidin-4-yl)thiazole-4-carboxamide], the EC50 in the data set on NF-κB is below 10 µM.

Turning to `O=C(c1ccccc1)c1ccc2nc(NC(=O)c3csc(C4CCN(C(=O)Nc5cc(Cl)nc(Cl)c5)CC4)n3)[nH]c2c1` [Compound 12, N-(6-benzoyl-1H-benzo[d]imidazol-2-yl)-2-(1-(2,6-dichloropyridin-4-ylcarbamoyl)piperidin-4-yl)thiazole-4-carboxamide], in the data set with NF-κB, the EC50 was below 10 µM.

Turning to `COc1cc(N2CCC(c3nc(C(=O)Nc4nc5ccc(C(=O)c6ccccc6)cc5[nH]4)cs3)CC2)nc(OC)n1` [Compound 1, N-(6-benzoyl-1H-benzo[d]imidazol-2-yl)-2-(1-(2,6-dimethoxypyrimidin-4-yl)piperidin-4-yl)thiazole-4-carboxamide], the EC50 in the data set on NF-κB is below 10 µM.

Take `O=C(c1ccccc1)c1ccc2[nH]c(NC(=O)c3csc(C4CCN(C(=O)c5ccccc5OC(F)(F)F)CC4)n3)nc2c1` [Compound 16, N-(5-benzoyl-1H-benzo[d]imidazol-2-yl)-2-(1-(2-(trifluoromethoxy)benzoyl)piperidin-4-yl)thiazole-4-carboxamide]: the EC50 in the data set with NF-κB is below 10 µM.

`COC(=O)c1cn2ncnc(N3CCC(c4nc(C(=O)Nc5nc6cc(C(=O)c7ccccc7)ccc6[nH]5)cs4)CC3)c2c1C` [Compound 8, Methyl 4-(4-(4-(5-benzoyl-1H-benzo[d]imidazol-2-ylcarbamoyl)thiazol-2-yl)piperidin-1-yl)-5-methylpyrrolo[1,2-f][1,2,4]triazine-6-carboxylate]: in the data set with NF-κB, the EC50 was in the range of 30 to 100 µM.

Take `O=C(c1ccccc1)c1ccc2nc(NC(=O)c3csc(C4CCN(c5cc(C(F)(F)F)ncn5)CC4)n3)[nH]c2c1` [Compound 5, N-(6-benzoyl-1H-benzo[d]imidazol-2-yl)-2-(1-(6-(trifluoromethyl)pyrimidin-4-yl)piperidin-4-yl)thiazole-4-carboxamide]: the EC50 in the data set with NF-κB is 10 to 30 µM.

`Cc1cc2nccc(N3CCC(c4nc(C(=O)Nc5nc6cc(C(=O)c7ccccc7)ccc6[nH]5)cs4)CC3)n2n1` [Compound 9, N-(5-benzoyl-1H-benzo[d]imidazol-2-yl)-2-(1-(2-methylpyrazolo[1,5-a]pyrimidin-7-yl)piperidin-4-yl)thiazole-4-carboxamide]: in the data set with NF-κB, the concentration for a half-maximal effect (EC50) is below 10 µM.

Take `COC(=O)c1nc2nccc(N3CCC(c4nc(C(=O)Nc5nc6cc(C(=O)c7ccccc7)ccc6[nH]5)cs4)CC3)n2n1` [Compound 11, Methyl 7-(4-(4-(5-benzoyl-1H-benzo[d]imidazol-2-ylcarbamoyl)thiazol-2-yl)piperidin-1-yl)-[1,2,4]triazolo[1,5-a]pyrimidine-2-carboxylate]: in the data set on NF-κB, the EC50 is below 10 µM.

As to `COc1cc2ncnc(N3CCC(c4nc(C(=O)Nc5nc6cc(C(=O)c7ccccc7)ccc6[nH]5)cs4)CC3)c2cc1OC` [Compound 14, N-(5-benzoyl-1H-benzo[d]imidazol-2-yl)-2-(1-(6,7-dimethoxyquinazolin-4-yl)piperidin-4-yl)thiazole-4-carboxamide], the concentration for a half-maximal effect (EC50) in the data set with NF-κB is below 10 µM.

Regarding `O=C(c1ccccc1)c1ccc2[nH]c(NC(=O)c3csc(C4CCN(c5ccnc6ncnn56)CC4)n3)nc2c1` [Compound 10, 2-(1-([1,2,4]triazolo[1,5-a]pyrimidin-7-yl)piperidin-4-yl)-N-(5-benzoyl-1H-benzo[d]imidazol-2-yl)thiazole-4-carboxamide], the EC50 in the data set with NF-κB was below 10 µM.

Values taken from US20090304632A1, “HETEROCYCLIC NF-kB INHIBITORS” (priority 2007, published 2009).
